Assay results as given in patent US20250127168A1, “METHOD FOR PATHOGENS, MICROORGANISMS, AND PARASITES INACTIVATION” (New York Blood Center, Inc., priority 2018, published 2025).

Experiments:
[1] = system: E. coli; experiment: Bacterial inactivation in Ringer's solution, colony agar plate count; format: cell-based; conditions: 100 μM, RT, 1 h treatment
Protocol: (§1) A panel of G+F and G-bacteria were inactivated in their respective growth medium using compound VI, compound X, and compound XIV. All cells were grown in corresponding media to middle log phase, collected by centrifugation, re-suspended in Ringer's solution (RS), and treated at RT with 100 μM of compound VI, compound X, and compound XIV, which were added to the suspension as 100× concentrate in RS. Controls received RS only. At the end of the incubation, unreacted compound VI, compound X, and compound XIV were neutralized with 10 mM sodium thiophosphate during incubation at RT for 30 min. The viable cells were enumerated using serial dilutions by standard colony agar plate count. Table 1 summarizes the typical results of 1 h treatment of E. coli, P. fluorescens, Y. enterocolitica, B. cereus, S. aureus, and S. epidermidis with compound VI, compound X, and compound XIV.

[2] = system: S. epidermidis; experiment: as above; format: cell-based; conditions: 100 μM, RT, 1 h treatment
Protocol: as §1

[3] = system: S. aureus; experiment: as above; format: cell-based; conditions: 100 μM, RT, 1 h treatment
Protocol: as §1

[4] = system: Y. enterocolitica; experiment: as above; format: cell-based; conditions: 100 μM, RT, 1 h treatment
Protocol: as §1

[5] = system: B. cereus; experiment: as above; format: cell-based; conditions: 100 μM, RT, 1 h treatment
Protocol: as §1

[6] = system: P. fluorescens; experiment: as above; format: cell-based; conditions: 100 μM, RT, 1 h treatment
Protocol: as §1

[7] = system: Plasmodium falciparum 3D7; experiment: Inactivation of blood-borne parasites in fresh human red blood cells; format: cell-based; conditions: 250 μM, 24 hours, physiological temperature
Protocol: (§2) Inactivation of blood-borne parasites, Plasmodium falciparum 3D7 and Babesia divergens Rouen, was conducted in fresh human red blood cells for 24 hours at physiological temperature. […] Above six logs inactivation of Candida albicans, a representative of pathogenic fungi, and three logs inactivation of Tetrahymena thermophila, a model organism for ciliated protozoa, were achieved by compound XIV at 250 μM in their respective growth media.

[8] = system: Babesia divergens Rouen; experiment: as above; format: cell-based; conditions: 250 μM, 24 hours, physiological temperature
Protocol: as §2

[9] = system: Candida albicans; experiment: Fungal inactivation in growth media; format: cell-based; conditions: 250 μM
Protocol: as §2

[10] = Neutralization of compound X by ethyl 2-mercaptoacetate (LCMS); format: physicochemical; conditions: PBS, RT; for Peak Areas (LCMS): 100 μM X + 10 mM ethyl 2-mercaptoacetate
Protocol: 100 μM solution of compound X in phosphate buffered saline was incubated at room temperature with 10 mM of ethyl-2-mercaptoacetate, and the change of the concentration of compound X, as well as the formation of the intermediate compound of neutralization (XXI) and the final compound of neutralization XXII was determined by LCMS analysis of the mixture. The reaction scheme of neutralization is presented below. The peak areas of compound X, intermediate neutralization product, Q1 (compound XXI) and final neutralization product, Q2 (compound XXII) are presented in the Table 8 below, and in FIG. 18.

[11] = system: Human respiratory syncytial virus (RSV); experiment: Viral inactivation, modified plaque assay; format: cell-based; conditions: 6 h, Ringer's/Lactate solution
Protocol: Human respiratory syncytial virus (RSV) was inactivated by using Compound VI or Compound X. For that purpose, sucrose gradient-purified virus was treated with 100 μM of Compound VI and Compound X at RT. […] The virus titers were determined using standard 10× serial dilutions in a modified plaque assay. For mock-treated virus no significant changes in RSV infectivity were found even after 6 h incubation at RT (in different experiments, the reduction of titers were in the range of 0.11-0.36 Login PFU/mL).
Inactivation of RSV with different concentrations of Compound XVI at RT and 40° C. was performed as described in Example 9.

Row | SMILES | Peak Areas (LCMS) ([10]; Time 6 min) | Peak Areas (LCMS) ([10]; Time 14.5 min) | Peak Areas (LCMS) ([10]; Time 23.1 min) | Peak Areas (LCMS) ([10]; Time 31.6 min) | Peak Areas (LCMS) ([10]; Time 40.2 min) | Peak Areas (LCMS) ([10]; Time 48.7 min) | Peak Areas (LCMS) ([10]; Time 57.3 min) | Peak Areas (LCMS) ([10]; Time 65.8 min) | Peak Areas (LCMS) ([10]; Time 74.3 min) | Peak Areas (LCMS) ([10]; Time 82.9 min) | Peak Areas (LCMS) ([10]; Time 91.4 min) | Peak Areas (LCMS) ([10]; Time 100.0 min) | Peak Areas (LCMS) ([10]; Time 108.5 min) | Peak Areas (LCMS) ([10]; Time 117.1 min) | Peak Areas (LCMS) ([10]; Time 125.6 min) | further results
1 | CN(CCCCN(C)CCCN(C)CCCN1CC1)CCCN(C)CCCN1CC1 [Compound XIV] |  |  |  |  |  |  |  |  |  |  |  |  |  |  |  | Titer [1]: 3.51 Log10CFU/mL; Titer [2]: 6.32 Log10CFU/mL; Titer [3]: 5.08 Log10CFU/mL; Titer [4]: 5.04 Log10CFU/mL; Titer [5]: ≤1.00 Log10CFU/mL; Titer [6]: ≤1.00 Log10CFU/mL; reduction of the number of viable plasmodium organisms [7]: ≥ 7 logs; reduction of the number of viable babesia [8]: 8 logs; inactivation of Candida albicans [9]: Above six
2 | CCOC(=O)CSCCNCCCN(C)CCCN(C)CCCCN(C)CCCN1CC1 [XXI] | 181.6 | 307 | 363.5 | 375.8 | 390.1 | 368.5 | 338.6 | 331.1 | 306.5 | 268.6 | 256 | 227.8 | 202.2 | 195 | 174 | first order rate constant of concentration decrease ([10]; 10 mM ethyl 2-mercaptoacetate): 0.026 min⁻¹
3 | CN(CCCN1CC1)CCCN1CC1 [Compound XVI, 3-(aziridin-1-yl)-N-(3-(aziridin-1-yl)propyl)-N-methylpropan-1-amine] |  |  |  |  |  |  |  |  |  |  |  |  |  |  |  | RSV Inactivation (difference between TO titer and titer) ([11]; 40° C., 100 μM): >6.48 Log10 PFU/mL; RSV titer ([11]; 40° C., 100 μM): <0.52 Log10 PFU/mL; RSV Inactivation (difference between TO titer and titer) ([11]; 40° C., 250 μM): >6.48 Log10 PFU/mL; RSV titer ([11]; 40° C., 250 μM): <0.52 Log10 PFU/mL; RSV Inactivation (difference between TO titer and titer) ([11]; 40° C., 500 μM): >6.48 Log10 PFU/mL; RSV titer ([11]; 40° C., 500 μM): <0.52 Log10 PFU/mL; RSV Inactivation (difference between TO titer and titer) ([11]; RT, 100 μM): 5.02 Log10 PFU/mL; RSV titer ([11]; RT, 100 μM): 1.98 Log10 PFU/mL; RSV Inactivation (difference between TO titer and titer) ([11]; RT, 250 μM): 5.50 Log10 PFU/mL; RSV titer ([11]; RT, 250 μM): 1.50 Log10 PFU/mL; RSV Inactivation (difference between TO titer and titer) ([11]; RT, 500 μM): >6.48 Log10 PFU/mL; RSV titer ([11]; RT, 500 μM): <0.52 Log10 PFU/mL
4 | CCOC(=O)CSCCNCCCN(C)CCCCN(C)CCCN(C)CCCNCCSCC(=O)OCC [XXII] | 48.7 | 131.9 | 214.4 | 280.7 | 349.3 | 397.1 | 424.3 | 479.4 | 489.3 | 498.6 | 513.2 | 527 | 520.5 | 548.8 | 536.5 | 
